Measurements from PubChem BioAssay AID1963445 (Molecular Pharmacology Branch, DTP, NCI, 2024).

Test system: MCF7 complex spheroid growth, % test/control
Assay: Anticancer human tumor MCF7 cell line growth inhibition [Asc];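 note: spheroids exposed to compounds for 7 days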;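 for viability, T/C: 100% = DMSO vehicle control wells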
Conditions: for IC50: curve of first compound; for viability, T/C: stronger effect = lower value
Summary of the method: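 Spheroid model: tumor line + HUVEC + hMSC. Single agents and combinations; top conc. at/near clinical Cmax (10 microM if undetermined), half-log dilutions. DMSO stocks at 800-fold test concentration.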

Structure (SMILES): C=C(F)C(=O)N1CCN(c2nc(OCC3CCCN3C)nc3c2CCN(c2cccc4cccc(Cl)c24)C3)CC1CC#N (centres undefined) + Cc1c(S(C)(=O)=O)c(-c2cc(F)cc(N3CCN(c4ccc(NS(=O)(=O)c5ccc(NC(CCN6CCC(C(=O)OCCCP(=O)(O)O)CC6)CSc6ccccc6)c(S(=O)(=O)C(F)(F)F)c5)cc4)CC3)c2)c(-c2ccc(Cl)cc2)n1C(C)C
- IC50 (second compound 0.0316 µM): 3440 nM
- IC50 (second compound 0.1 µM): 4540 nM
- IC50 (second compound 0.316 µM): 3000 nM
- IC50 (second compound 1 µM): 3920 nM
- IC50 (second compound 3.16 µM): 3290 nM
- IC50 (second compound 10 µM): 4230 nM
- viability, T/C (second compound 0.0316 µM, first compound 0.0316 µM): 105%
- viability, T/C (second compound 0.0316 µM, first compound 0.1 µM): 108%
- viability, T/C (second compound 0.0316 µM, first compound 0.316 µM): 87.6%
- viability, T/C (second compound 0.0316 µM, first compound 1 µM): 75.2%
- viability, T/C (second compound 0.0316 µM, first compound 3.16 µM): 60.7%
- viability, T/C (second compound 0.0316 µM, first compound 10 µM): 0.25%
- viability, T/C (second compound 0.1 µM, first compound 0.0316 µM): 107%
- viability, T/C (second compound 0.1 µM, first compound 0.1 µM): 90.5%
- viability, T/C (second compound 0.1 µM, first compound 0.316 µM): 97.3%
- viability, T/C (second compound 0.1 µM, first compound 1 µM): 95.8%
- viability, T/C (second compound 0.1 µM, first compound 3.16 µM): 72.7%
- viability, T/C (second compound 0.1 µM, first compound 10 µM): 0.14%
- viability, T/C (second compound 0.316 µM, first compound 0.0316 µM): 103%
- viability, T/C (second compound 0.316 µM, first compound 0.1 µM): 88.8%
- viability, T/C (second compound 0.316 µM, first compound 0.316 µM): 86.8%
- viability, T/C (second compound 0.316 µM, first compound 1 µM): 87%
- viability, T/C (second compound 0.316 µM, first compound 3.16 µM): 48%
- viability, T/C (second compound 0.316 µM, first compound 10 µM): 0.13%
- viability, T/C (second compound 1 µM, first compound 0.0316 µM): 96.3%
- viability, T/C (second compound 1 µM, first compound 0.1 µM): 82.6%
- viability, T/C (second compound 1 µM, first compound 0.316 µM): 87.1%
- viability, T/C (second compound 1 µM, first compound 1 µM): 81.5%
- viability, T/C (second compound 1 µM, first compound 3.16 µM): 61.8%
- viability, T/C (second compound 1 µM, first compound 10 µM): 0.17%
- viability, T/C (second compound 3.16 µM, first compound 0.0316 µM): 97.9%
- viability, T/C (second compound 3.16 µM, first compound 0.1 µM): 86%
- viability, T/C (second compound 3.16 µM, first compound 0.316 µM): 84.2%
- viability, T/C (second compound 3.16 µM, first compound 1 µM): 81.7%
- viability, T/C (second compound 3.16 µM, first compound 3.16 µM): 50.8%
- viability, T/C (second compound 3.16 µM, first compound 10 µM): 0.17%
- viability, T/C (second compound 10 µM, first compound 0.0316 µM): 200%
- viability, T/C (second compound 10 µM, first compound 0.1 µM): 167%
- viability, T/C (second compound 10 µM, first compound 0.316 µM): 231%
- viability, T/C (second compound 10 µM, first compound 1 µM): 223%
- viability, T/C (second compound 10 µM, first compound 3.16 µM): 66.7%
- viability, T/C (second compound 10 µM, first compound 10 µM): 0.3%

Structure (SMILES): CCN1C(C(=O)NC23CCC(C(=O)O)(CC2)CC3)C(c2cccc(Cl)c2F)C2(C(=O)Nc3cc(Cl)ccc32)C12CCCCC2 (centres undefined) + Cc1c(S(C)(=O)=O)c(-c2cc(F)cc(N3CCN(c4ccc(NS(=O)(=O)c5ccc(NC(CCN6CCC(C(=O)OCCCP(=O)(O)O)CC6)CSc6ccccc6)c(S(=O)(=O)C(F)(F)F)c5)cc4)CC3)c2)c(-c2ccc(Cl)cc2)n1C(C)C
- IC50 (second compound 0.0316 µM): 134 nM
- IC50 (second compound 0.1 µM): 110 nM
- IC50 (second compound 0.316 µM): 90 nM
- IC50 (second compound 1 µM): 82 nM
- IC50 (second compound 3.16 µM): 60.3 nM
- IC50 (second compound 10 µM): 73.5 nM
- viability, T/C (second compound 0.0316 µM, first compound 0.00949 µM): 96.9%
- viability, T/C (second compound 0.0316 µM, first compound 0.03 µM): 97.5%
- viability, T/C (second compound 0.0316 µM, first compound 0.0949 µM): 48.9%
- viability, T/C (second compound 0.0316 µM, first compound 0.3 µM): 38.3%
- viability, T/C (second compound 0.0316 µM, first compound 0.949 µM): 22.7%
- viability, T/C (second compound 0.0316 µM, first compound 3 µM): 12.1%
- viability, T/C (second compound 0.1 µM, first compound 0.00949 µM): 108%
- viability, T/C (second compound 0.1 µM, first compound 0.03 µM): 93.7%
- viability, T/C (second compound 0.1 µM, first compound 0.0949 µM): 46%
- viability, T/C (second compound 0.1 µM, first compound 0.3 µM): 34.5%
- viability, T/C (second compound 0.1 µM, first compound 0.949 µM): 15.2%
- viability, T/C (second compound 0.1 µM, first compound 3 µM): 11.4%
- viability, T/C (second compound 0.316 µM, first compound 0.00949 µM): 95.2%
- viability, T/C (second compound 0.316 µM, first compound 0.03 µM): 79.6%
- viability, T/C (second compound 0.316 µM, first compound 0.0949 µM): 45%
- viability, T/C (second compound 0.316 µM, first compound 0.3 µM): 28.9%
- viability, T/C (second compound 0.316 µM, first compound 0.949 µM): 15%
- viability, T/C (second compound 0.316 µM, first compound 3 µM): 9.79%
- viability, T/C (second compound 1 µM, first compound 0.00949 µM): 91.9%
- viability, T/C (second compound 1 µM, first compound 0.03 µM): 74.4%
- viability, T/C (second compound 1 µM, first compound 0.0949 µM): 42.5%
- viability, T/C (second compound 1 µM, first compound 0.3 µM): 33.4%
- viability, T/C (second compound 1 µM, first compound 0.949 µM): 11.6%
- viability, T/C (second compound 1 µM, first compound 3 µM): 14.9%
- viability, T/C (second compound 3.16 µM, first compound 0.00949 µM): 97.9%
- viability, T/C (second compound 3.16 µM, first compound 0.03 µM): 63.8%
- viability, T/C (second compound 3.16 µM, first compound 0.0949 µM): 44.2%
- viability, T/C (second compound 3.16 µM, first compound 0.3 µM): 18.8%
- viability, T/C (second compound 3.16 µM, first compound 0.949 µM): 12.1%
- viability, T/C (second compound 3.16 µM, first compound 3 µM): 11.5%
- viability, T/C (second compound 10 µM, first compound 0.00949 µM): 188%
- viability, T/C (second compound 10 µM, first compound 0.03 µM): 153%
- viability, T/C (second compound 10 µM, first compound 0.0949 µM): 30.6%
- viability, T/C (second compound 10 µM, first compound 0.3 µM): 27.4%
- viability, T/C (second compound 10 µM, first compound 0.949 µM): 12.2%
- viability, T/C (second compound 10 µM, first compound 3 µM): 12.3%
